# Structures can show the parent of a compound that is named as a salt. Where two headings read alike, the source gives them in different places.
# Key:
# Cryptococcus neoformans = experiment: in vitro antifungal susceptibility testing (MIC, MFC; broth macrodilution), Tables 1-7; assay type: cell-based; conditions: for MIC: read-out: MIC80 (Minimum inhibitory concentration 80%); for MFC: read-out: MFC (Minimum fungicidal concentration)
# From the text: (§1) The fungi that were employed included two reference strains, C. neoformans var. neoformans H99 and C. albicans A39 and the following clinical isolates: (1) two strains of fluconazole-resistant C. neoformans var. neoformans (135.95 and 114.96); (2) two strains of C. neoformans var. gattii (119.95 and 114.95); (3) two strains of fluconazole-resistant C. albicans (102.96 and 103.96); and (4) one strain each of Torulopsis glabrata (142.91), Candida parapsilosis (111.96), Candida krusei (132.91), C. tropicalis (110.96), Candida lusitaniae (111.92), Fusarium solani (152.89), Aspergillus fumigatus (168.95), and Aspergillus flavus (112.96). Antifungal susceptibility testing was performed using an RPMI-1640 medium (Sigma Chemical Co., St. Louis, Mo.) with glutamine, without sodium bicarbonate, and buffered at pH 7.0 with 0.165 M morpholine-propanesulfonic acid (MOPS).
# (§2) In vitro susceptibility testing in the form of Minimum Inhibitory Concentration (MIC) experiments were performed using the broth macrodilution method according to the recommendations of the National Committee for Clinical Laboratory Standards (see 1995 manual). The only difference compared to the standardized procedure was the choice of drug dilutions ranging from 100 to 0.09 μg/ml. Briefly, this procedure specifies an inoculum grown at 35° C. and adjusted to a concentration of 0.5-2.5×10^3 CFU/ml with an incubation of the test performed at 35° C. and reading at 48 hours for all yeasts except for C. neoformans which is interpreted at 72 hr.
# (§3) Minimum Fungicidal Concentration (MFC) experiments were adapted from a method by McGinnis (McGinnis, M. R., (1980) "Susceptibility testing and bioassay procedure", p. 431, Academic Press, Inc., New York). Briefly, 10 μl aliquots from tubes with growth inhibition were plated onto Sabouraud agar plates.
# (§4) The fungi that were employed included two quality control reference strains, C. neoformans var. neoformansH99 and C. albicans A39 and the following clinical isolates: (1) four strains of C. neoformans var. neoformans (167.95; 135.95; 114.96; and 133.95) of which three were fluconazole-resistant>64 μg/ml (135.95; 114.96; and 133.95); (2) two strains of C. neoformans var. gattii (119.95 and 114.95); (3) two strains of fluconazole-resistant>64 μg/ml C. albicans (102.96 and 103.96); and (4) one strain each of C. glabrata (142.91), Candida parapsilosis (111.96), Candida krusei (132.91), C. tropicalis (110.96), Candida lusitaniae (111.92), Fusarium solani (152.89), Aspergillus fumigatus (168.95), Rhizopus arrhizus (117.89), Paecilomyces lilacinus (137.90), and Aspergillus flavus (112.96). Antifungal susceptibility testing was performed using an RPMI-1640 medium (Sigma Chemical Co., St. Louis, Mo.) with glutamine, without sodium bicarbonate, and buffered at pH 7.0 with 0.165 M morpholinepropanesulfonic acid (MOPS).
# as §3, with “p.431,” for “p. 431,”
# Candida albicans = experiment: as above; assay type: cell-based; conditions: for MIC: read-out: MIC80 (Minimum inhibitory concentration 80%); for MFC: read-out: MFC (Minimum fungicidal concentration)
# From the text: as §1, §2, §3, §4
# as §3, with “p.431,” for “p. 431,”
# [1] = Tables 2-7, three or fewer colonies
# [2] = Table 1, three or fewer colonies
Compound,"MIC (Cryptococcus neoformans; 35° C., 72 hr)",MFC (Cryptococcus neoformans; [1]),"MIC (Candida albicans; 35° C., reading at 48 hours)",MFC (Candida albicans; three or fewer colonies),MFC (Cryptococcus neoformans; [2]),MIC (Cryptococcus neoformans; 72 h),MFC (Cryptococcus neoformans),MIC (Candida albicans; 48 h),MFC (Candida albicans)
N=C(N)c1ccc(OCCCOc2ccc(-c3nc4ccc(C(=N)N)cc4[nH]3)cc2)cc1 [Compound 64],0.19 µg/mL,0.78 µg/mL,0.39 µg/mL,0.78 µg/mL,,,,,
CN(C)CCNC(=N)c1cccc(-c2ccc(-c3cccc(C(=N)NCCN(C)C)c3)o2)c1 [Compound 41],12.5 µg/mL,50 µg/mL,> 100 µg/mL,,,,,,
"N=C(N)c1ccc2nc(-c3ccc4oc(-c5nc6ccc(C(=N)N)cc6[nH]5)cc4c3)[nH]c2c1 [Compound 55, 2,5-Bis[2-(5-amidino)benzimidazoyl]benzo[b]furan hydrochloride]",0.19 µg/mL,0.19 µg/mL,0.39 µg/mL,0.78 µg/mL,,,,,
N=C(N)c1ccc2nc(CCc3nc4ccc(C(=N)N)cc4[nH]3)[nH]c2c1 [Compound 30],6.25 µg/mL,25 µg/mL,12.5 µg/mL,50 µg/mL,,,,,
c1cc(-c2nc3ccc(C4=NCCCN4)cc3[nH]2)ccc1C1=NCCCN1 [Compound 63],25 µg/mL,50 µg/mL,50 µg/mL,100 µg/mL,,,,,
CN(C)CCCN(C)C(=O)c1ccc(-c2ccc(-c3ccc(C(=O)N(C)CCCN(C)C)cc3)o2)cc1 [Compound 37],> 110 µg/mL,,> 100 µg/mL,,,,,,
COc1ccc(-c2nc3ccc(C4=NCCN4)cc3[nH]2)cc1 [Compound 59],50 µg/mL,100 µg/mL,25 µg/mL,,,,,,
N=C(N)c1cccc(OCCCCCCOc2cccc(C(=N)N)c2)c1 [Compound 19],6.25 µg/mL,,1.58 µg/mL,12.5 µg/mL,12.5 µg/mL,,,,
N=C(N)c1ccc(NCCCCCNc2ccc(C(=N)N)cc2)cc1 [Compound 18],0.78 µg/mL,,≤ 0.09 µg/mL,0.39 µg/mL,1.56 µg/mL,,,,
N=C(N)c1ccc(OCCCOc2ccc(C(=N)N)cc2)cc1 [Compound 3],6.25 µg/mL,,3.12 µg/mL,3.12 µg/mL,6.25 µg/mL,,,,
N=C(N)c1ccc(OCCOc2ccc(C(=N)N)cc2N)c(N)c1 [Compound 2],> 100 µg/mL,,25 µg/mL,,,,,,
COc1cc(C(N)=NO)ccc1OCCCOc1ccc(C(N)=NO)cc1OC [Compound 6],> 100 µg/mL,,> 100 µg/mL,,,,,,
N=C(N)c1cccc(-c2ccc(-c3cccc(C(=N)N)c3)o2)c1 [Compound 38],3.12 µg/mL,25 µg/mL,50 µg/mL,100 µg/mL,,,,,
CN1CCN(c2ccc3nc(-c4ccc5nc(-c6ccc(O)cc6)[nH]c5c4)[nH]c3c2)CC1 [Compound 58],,,,,,100 µg/mL,> 100 µg/mL,25 µg/mL,50 µg/mL
N=C(N)c1ccc(OCCCCCOc2ccc(C(=N)N)cc2Cl)c(Cl)c1 [Compound 17],1.56 µg/mL,,3.12 µg/mL,6.25 µg/mL,3.12 µg/mL,,,,
CCCNC(=N)c1ccc(-c2ccc(-c3ccc(C(=N)NCCC)cc3)o2)cc1 [Compound 24],1.56 µg/mL,6.25 µg/mL,12.5 µg/mL,12.5 µg/mL,,,,,
c1cc2nc(-c3ccc(-c4nc5ccc(C6=NCCCN6)cc5[nH]4)cc3)[nH]c2cc1C1=NCCCN1 [Compound 49],0.78 µg/mL,1.56 µg/mL,1.56 µg/mL,3.12 µg/mL,,,,,
CC(C)NC(=N)c1ccc(-c2ccc(-c3ccc(C(=N)NC(C)C)cc3)o2)cc1 [Compound 25],6.25 µg/mL,50 µg/mL,25 µg/mL,50 µg/mL,,,,,
N=C(N)c1ccc2nc(-c3ccc(O)cc3)[nH]c2c1 [Compound 61],> 100 µg/mL,> 100 µg/mL,> 100 µg/mL,,,,,,

# — patent US6326395A, “Antifungal activity of dicationic molecules” (priority 1999, dated 2001)
